# Measurements: ChEMBL document CHEMBL2434830, “Inhibitory constituents from the aerial parts of Polygala tenuifolia on LPS-induced NO production in BV2 microglia cells” (Bioorg Med Chem Lett, 2013)
# pIC50: −log10 of the molar value.
# Tested on: BV-2
# Assay: Antiinflammatory activity in mouse BV2 cells assessed as inhibition of LPS-induced NO production after 24 hrs by Griess assay
# Format: functional, cell-based
# Settings: BV-2, 24 h
row,pIC50,SMILES
1,4.69,O=c1c2cc(O)ccc2oc2cc3c(c(O)c12)OCO3
2,4.42,O=c1c2cc(O)ccc2oc2c(O[C@@H]3O[C@H](CO)[C@@H](O)[C@H](O)[C@H]3O)ccc(O)c12
3,5.13,COc1ccc(O)c2c(=O)c3cc(O)ccc3oc12
4,< 4.00,COc1cc2c(=O)c3c(O)cc(O)cc3oc2cc1O [ALLOATHYRIOL]
5,5.15,COc1ccc2c(c1)c(CC(=O)O)c(C)n2C(=O)c1ccc(Cl)cc1 [INDOMETHACIN]
6,4.41,O=c1c2cc(O)c(O)cc2oc2cc(O)c([C@@H]3O[C@H](CO)[C@@H](O)[C@H](O)[C@H]3O)c(O)c12 [MANGIFERIN]

# Tested on: BV-2
# Assay: Cytotoxicity against mouse BV2 cells assessed as cell viability at 50 uM by MTT assay
# Format: cell-based
# Settings: bv-2, 50 µM
row,SMILES,Activity
1,COc1c(O)cc2oc3ccc(O)cc3c(=O)c2c1O,Toxic
2,COc1cc2oc3cc(O)c(O)cc3c(=O)c2c(O)c1OC,Toxic
3,O=c1c2ccc(O)cc2oc2cccc(O)c12,Toxic
